The text below walks through data of PMC11003477, “Fluorine and chlorine substituted adamantyl-urea as molecular tools for inhibition of human soluble epoxide hydrolase with picomolar efficacy” (Journal of Enzyme Inhibition and Medicinal Chemistry, 2023).

In brackets after ≈: the same amount, converted by molar mass. Some results are limits rather than exact numbers.

Test system in one data set: not listed separately
In words: Aqueous solubility by turbidimetric assay. It is filed as physicochemical. Conditions: aqueous buffer, kinetic from dmso stock, sodium phosphate buffer (pH 7.4, 0.1 M) containing 1% of DMSO, read-out: Saq (aqueous solubility). As to the method: Solubilities were measured in sodium phosphate buffer (pH 7.4, 0.1 M) containing 1% of DMSO by turbidimetric assay.
The term solubility denotes how much of the substance goes into solution per volume. In the case of `O=C(NCCCCCCNC(=O)NCC12CC3CC(CC(Cl)(C3)C1)C2)NCC12CC3CC(CC(Cl)(C3)C1)C2` [Compound 12e], the solubility came to 60 ± 10 µM (≈ 34.1 µg/mL).
Same read-out and setting: the result for `O=C(NCCCCNC(=O)NCC12CC3CC(CC(Cl)(C3)C1)C2)NCC12CC3CC(CC(Cl)(C3)C1)C2` [Compound 12c] reads 60 ± 10 µM (≈ 32.4 µg/mL); that for `O=C(NCCCCCCCCCCNC(=O)NCC12CC3CC(CC(Cl)(C3)C1)C2)NCC12CC3CC(CC(Cl)(C3)C1)C2` [Compound 12i], 60 ± 10 µM (≈ 37.4 µg/mL).
Same read-out and setting: the result for `O=C(NCC12CC3CC(CC(Cl)(C3)C1)C2)N[C@H]1CC[C@H](Oc2ccc(C(=O)O)cc2)CC1` [Compound 10] reads 160 ± 20 µM (≈ 73.8 µg/mL).
Same read-out and setting: as for `O=C(NCCCNC(=O)NCC12CC3CC(CC(F)(C3)C1)C2)NCC12CC3CC(CC(F)(C3)C1)C2` [Compound 11b], the figure is 150 ± 20 µM (≈ 73.9 µg/mL); as for `O=C(NCCCCCCCCCCNC(=O)NCC12CC3CC(CC(F)(C3)C1)C2)NCC12CC3CC(CC(F)(C3)C1)C2` [Compound 11i], 150 ± 20 µM (≈ 88.6 µg/mL).
Take `O=C(NCCCCNC(=O)NCC12CC3CC(CC(F)(C3)C1)C2)NCC12CC3CC(CC(F)(C3)C1)C2` [Compound 11c]: the solubility was found to be 180 ± 20 µM (≈ 91.2 µg/mL).
On to `O=C(NCCCCCCNC(=O)NCC12CC3CC(CC(C3)C1)C2)NCC12CC3CC(CC(C3)C1)C2` [DAMH, 1,1'-(hexane-1,6-diyl)bis(3-(adamantan-1-ylmethyl)urea), reference compound], for which the solubility was 65 ± 5 µM (≈ 32.4 µg/mL).
Same read-out and setting: the result for `O=C(NCCCCCCCCNC(=O)NCC12CC3CC(CC(Cl)(C3)C1)C2)NCC12CC3CC(CC(Cl)(C3)C1)C2` [Compound 12g] reads 60 ± 10 µM (≈ 35.7 µg/mL); that for `O=C(NCCCCCCCNC(=O)NCC12CC3CC(CC(F)(C3)C1)C2)NCC12CC3CC(CC(F)(C3)C1)C2` [Compound 11f], 200 ± 20 µM (≈ 110 µg/mL).

Test system in a further data set: not given
Experiment: not given
Details: not given
Broadly, the melting point is the temperature of the solid-liquid transition. For the compound `O=C(NCCCCCCNC(=O)NCC12CC3CC(CC(Cl)(C3)C1)C2)NCC12CC3CC(CC(Cl)(C3)C1)C2` [Compound 12e], the melting point fell in the range of 148 to 149 °C.
In turn, `O=C(NCCCCNC(=O)NCC12CC3CC(CC(Cl)(C3)C1)C2)NCC12CC3CC(CC(Cl)(C3)C1)C2` [Compound 12c] registered a melting point of 213 to 214 °C.
Same read-out and setting: the result for `O=C(NCCCCCCCCCCNC(=O)NCC12CC3CC(CC(Cl)(C3)C1)C2)NCC12CC3CC(CC(Cl)(C3)C1)C2` [Compound 12i] reads 189 to 190 °C.
As to `O=C(NCC12CC3CC(CC(Cl)(C3)C1)C2)N[C@H]1CC[C@H](Oc2ccc(C(=O)O)cc2)CC1` [Compound 10], the melting point is 192 to 193 °C.
`O=C(NCCCNC(=O)NCC12CC3CC(CC(F)(C3)C1)C2)NCC12CC3CC(CC(F)(C3)C1)C2` [Compound 11b] registered a melting point of 87 to 88 °C.
On the same count and under the same terms, as for `O=C(NCCCCCCCCCCNC(=O)NCC12CC3CC(CC(F)(C3)C1)C2)NCC12CC3CC(CC(F)(C3)C1)C2` [Compound 11i], the figure is 76 to 77 °C; as for `O=C(NCCCCNC(=O)NCC12CC3CC(CC(F)(C3)C1)C2)NCC12CC3CC(CC(F)(C3)C1)C2` [Compound 11c], 142 to 143 °C.
Same read-out and setting: the result for `O=C(NCCCCCCCCNC(=O)NCC12CC3CC(CC(Cl)(C3)C1)C2)NCC12CC3CC(CC(Cl)(C3)C1)C2` [Compound 12g] reads 187 to 188 °C; that for `O=C(NCCCCCCCNC(=O)NCC12CC3CC(CC(F)(C3)C1)C2)NCC12CC3CC(CC(F)(C3)C1)C2` [Compound 11f], 77 to 78 °C.

For the next data set, the target named is T1, human sEH (Homo sapiens, UniProt P34913).
T1 construct: made in house; host or cells: insect cells with baculovirus (given both as High Five cells and as Spodoptera frugiperda 21)
T1 sequence (P34913 1-555): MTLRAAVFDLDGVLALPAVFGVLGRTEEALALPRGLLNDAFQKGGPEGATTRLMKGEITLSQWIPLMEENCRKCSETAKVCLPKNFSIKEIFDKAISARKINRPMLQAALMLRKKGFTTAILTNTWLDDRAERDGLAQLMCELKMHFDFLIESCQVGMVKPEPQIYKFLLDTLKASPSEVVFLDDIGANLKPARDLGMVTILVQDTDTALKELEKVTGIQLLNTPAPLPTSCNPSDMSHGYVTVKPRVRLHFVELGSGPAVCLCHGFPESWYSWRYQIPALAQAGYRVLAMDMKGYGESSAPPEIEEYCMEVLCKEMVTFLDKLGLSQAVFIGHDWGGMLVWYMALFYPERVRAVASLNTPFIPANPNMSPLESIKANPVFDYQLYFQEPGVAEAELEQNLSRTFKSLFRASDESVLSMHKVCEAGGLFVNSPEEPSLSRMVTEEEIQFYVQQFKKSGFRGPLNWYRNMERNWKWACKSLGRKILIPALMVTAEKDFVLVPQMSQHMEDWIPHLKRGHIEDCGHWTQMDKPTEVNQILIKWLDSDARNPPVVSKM
In words: Human sEH inhibition, kinetic fluorescent assay (CMNPC assay). The conditions noted are these: CMNPC fluorescent assay, means of three independent experiments, measurement limit 0.04 nM, read-out: IC50. The class given is biochemical. As to the method: Recombinant human and recombinant rat sEH were produced in insect High Five cells using recombinant baculovirus expression vectors, and purified by affinity chromatography as reported previously.[31]^,[32] […] Human sEH was obtained by expressing cDNA in the baculovirus system in the cell line Spodoptera frugiperda 21.
Determination of inhibitory potency (IC50) by fluorescent assay (CMNPC assay)[27]
The enzyme (ca. 1 nM human sEH) was incubated at 30 °C with inhibitors ([I]final = 0.4–100,000 nM) for 5 min in 100 mM sodium phosphate buffer (200 μL, pH 7.4) containing 0.1 mg mL^−1 of BSA and 1% of DMSO. The substrate (cyano(2-methoxynaphthalen-6-yl)methyl trans-(3-phenyloxyran-2-yl)methylcarbonate, CMNPC) was then added ([S]final = 5 μM). The activity was assessed by measuring the appearance of the fluorescent 6-methoxynaphthaldehyde product ([…]) at 30 °C during a 10 min incubation (Spectramax M2; Molecular Device, Inc., Sunnyvale, CA).
The IC50 is the midpoint of a concentration-inhibition curve. For `O=C(NCCCCCCNC(=O)NCC12CC3CC(CC(Cl)(C3)C1)C2)NCC12CC3CC(CC(Cl)(C3)C1)C2` [Compound 12e], the IC50 is < 0.04 nM.
Turning to `O=C(NCCCCNC(=O)NCC12CC3CC(CC(Cl)(C3)C1)C2)NCC12CC3CC(CC(Cl)(C3)C1)C2` [Compound 12c], the IC50 is < 0.04 nM.
On the same count and under the same terms, as for `O=C(NCCCCCCCCCCNC(=O)NCC12CC3CC(CC(Cl)(C3)C1)C2)NCC12CC3CC(CC(Cl)(C3)C1)C2` [Compound 12i], the figure is < 0.04 nM; as for `O=C(NCC12CC3CC(CC(Cl)(C3)C1)C2)N[C@H]1CC[C@H](Oc2ccc(C(=O)O)cc2)CC1` [Compound 10], < 0.04 nM.
In the case of `O=C(NCCCNC(=O)NCC12CC3CC(CC(F)(C3)C1)C2)NCC12CC3CC(CC(F)(C3)C1)C2` [Compound 11b], the IC50 amounted to 1.8 nM.
For the compound `O=C(NCCCCCCCCCCNC(=O)NCC12CC3CC(CC(F)(C3)C1)C2)NCC12CC3CC(CC(F)(C3)C1)C2` [Compound 11i], the half-inhibitory concentration (IC50) was 0.05 nM.
The same measure, in the same setting: as for `O=C(NCCCCNC(=O)NCC12CC3CC(CC(F)(C3)C1)C2)NCC12CC3CC(CC(F)(C3)C1)C2` [Compound 11c], the figure is 0.5 nM; as for `O=C(NCCCCCCNC(=O)NCC12CC3CC(CC(C3)C1)C2)NCC12CC3CC(CC(C3)C1)C2` [DAMH, 1,1'-(hexane-1,6-diyl)bis(3-(adamantan-1-ylmethyl)urea), reference compound], 0.4 nM.
Same read-out and setting: as for `O=C(NCCCCCCCCNC(=O)NCC12CC3CC(CC(Cl)(C3)C1)C2)NCC12CC3CC(CC(Cl)(C3)C1)C2` [Compound 12g], the figure is 0.1 nM; as for `O=C(NCCCCCCCNC(=O)NCC12CC3CC(CC(F)(C3)C1)C2)NCC12CC3CC(CC(F)(C3)C1)C2` [Compound 11f], < 0.04 nM.

A further data set concerns the target T1, human sEH.
Experiment: not given
Conditions: chlorine derivative of t-AUCB without methylene bridge; cited from earlier work.
For `O=C(NC12CC3CC(CC(Cl)(C3)C1)C2)N[C@H]1CC[C@H](Oc2ccc(C(=O)O)cc2)CC1` [Compound 1c], the IC50 is 1.4 nM.

Still in this data set, the particulars now being: earlier version of the assay with a measurement limit of 0.4 nM; cited from earlier work.
With `O=C(NCCCCCCNC(=O)NCC12CC3CC(CC(C3)C1)C2)NCC12CC3CC(CC(C3)C1)C2` [DAMH, 1,1'-(hexane-1,6-diyl)bis(3-(adamantan-1-ylmethyl)urea), reference compound], the IC50 is 1 nM.
